Measurements as given in BigSolDB 2.1.

O=C(NC(Cc1cc(=O)[nH]c2ccccc12)C(=O)O)c1ccc(Cl)cc1 (stereo not given)
solubility (mole fraction)
Conditions	278.15 K	283.15 K	288.15 K	293.15 K	298.15 K	303.15 K	308.15 K	313.15 K	318.15 K
in ethanol	6.26e-05	6.92e-05	7.65e-05	8.61e-05	9.66e-05	0.000107	0.000118	0.000131	0.000143
in isopropanol	2.41e-05	3.02e-05	3.87e-05	4.8e-05	5.92e-05	7.31e-05	8.91e-05	0.000107	0.000129
in n-propanol	4.25e-05	5.08e-05	6e-05	7.03e-05	8.1e-05	9.38e-05	0.000107	0.000123	0.00014
in propylene glycol	0.000182	0.000192	0.000207	0.000225	0.000247	0.000269	0.000293	0.000319	0.00035
in water	3.46e-07	4.26e-07	5.29e-07	6.84e-07	8.68e-07	1.08e-06	1.3e-06	1.56e-06	1.87e-06
